# Experimental data: ChEMBL document CHEMBL1201862, “PubChem BioAssay data set” (2004)
# Where “and” joins values, the source holds several entries; their conditions need not be identical. Identical values can stand only once.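 Assay format: 96-well plates, 48-hour exposure. The concentration for 50% growth inhibition is given as GI50.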 Calls of active or inactive are those of the source. Cut-off read from the data, not from the text of the source: active = GI50 up to about 1.1 µM and inactive = higher.
# How the values were obtained:
# Assay in all cases: DTP human tumour cell line panel, 48 h
# 786-0 = test system: 786-0
# A498 = test system: A498
# A549 = test system: A549
# ACHN = test system: ACHN
# CAKI-1 = test system: CAKI-1
# CCRF-CEM = test system: CCRF-CEM
# COLO 205 = test system: COLO 205
# DU-145 = test system: DU-145
# HCT-116 = test system: HCT-116
# HCT-15 = test system: HCT-15
# HL-60 = test system: HL-60
# HOP-62 = test system: HOP-62
# HOP-92 = test system: HOP-92
# Hs-578T = test system: Hs-578T
# IGROV-1 = test system: IGROV-1
# K562 = test system: K562
# KM12 = test system: KM12
# LOX IMVI = test system: LOX IMVI
# M14 = test system: M14
# MCF7 = test system: MCF7
# MDA-MB-231 = test system: MDA-MB-231
# MDA-MB-435 = test system: MDA-MB-435
# MDA-N = test system: MDA-N
# MOLT-4 = test system: MOLT-4
# NCI-H226 = test system: NCI-H226
# NCI-H23 = test system: NCI-H23
# NCI-H460 = test system: NCI-H460
# NCI-H522 = test system: NCI-H522
# NCI/ADR-RES = test system: NCI/ADR-RES
# OVCAR-3 = test system: OVCAR-3
# OVCAR-5 = test system: OVCAR-5
# OVCAR-8 = test system: OVCAR-8
# PC-3 = test system: PC-3
# RPMI-8226 = test system: RPMI-8226
# RXF 393 = test system: RXF 393
# SF-268 = test system: SF-268
# SF-295 = test system: SF-295
# SF-539 = test system: SF-539
# SK-MEL-2 = test system: SK-MEL-2
# SK-MEL-5 = test system: SK-MEL-5
# SK-OV-3 = test system: SK-OV-3
# SN12C = test system: SN12C
# SNB-19 = test system: SNB-19
# SR = test system: SR
# SW-620 = test system: SW-620
# T47D = test system: T47D
# U-251 = test system: U-251
# UACC-257 = test system: UACC-257
# UACC-62 = test system: UACC-62
# UO-31 = test system: UO-31
# EKVX = test system: EKVX
# HCC 2998 = test system: HCC 2998
# HT-29 = test system: HT-29
# Malme-3M = test system: Malme-3M
# SK-MEL-28 = test system: SK-MEL-28
# TK-10 = test system: TK-10
smiles,measurement,setting,value
CO/N=C(/C)c1cccc(Nc2nc3ccc(Cl)cc3c3[nH]c4ccccc4c23)c1,GI50,786-0,6.79 µM (inactive)
same,GI50,A498,4.29 µM (inactive)
same,GI50,A549,12.8 µM (inactive)
same,GI50,ACHN,3.74 µM (inactive)
same,GI50,CAKI-1,10.4 µM (inactive)
same,GI50,CCRF-CEM,23 µM (inactive)
same,GI50,COLO 205,5.87 µM (inactive)
same,GI50,DU-145,12.2 µM (inactive)
same,GI50,HCT-116,4.21 µM (inactive)
same,GI50,HCT-15,9.73 µM
same,GI50,HL-60,13.2 µM (inactive)
same,GI50,HOP-62,11.7 µM (inactive)
same,GI50,HOP-92,3.65 µM (inactive)
same,GI50,Hs-578T,16.7 µM (inactive)
same,GI50,IGROV-1,10.6 µM (inactive)
same,GI50,K562,3.13 µM (inactive)
same,GI50,KM12,3.97 µM (inactive)
same,GI50,LOX IMVI,11.2 µM (inactive)
same,GI50,M14,6.92 µM (inactive)
same,GI50,MCF7,10.3 µM (inactive)
same,GI50,MDA-MB-231,13.4 µM (inactive)
same,GI50,MDA-MB-435,8.57 µM (inactive)
same,GI50,MDA-N,11.8 µM (inactive)
same,GI50,MOLT-4,5.13 µM (inactive)
same,GI50,NCI-H226,12.5 µM (inactive)
same,GI50,NCI-H23,11.5 µM (inactive)
same,GI50,NCI-H460,4.31 µM (inactive)
same,GI50,NCI-H522,4.75 µM (inactive)
same,GI50,NCI/ADR-RES,14.3 µM (inactive)
same,GI50,OVCAR-3,4.62 µM (inactive)
same,GI50,OVCAR-5,7.31 µM (inactive)
same,GI50,OVCAR-8,8 µM (inactive)
same,GI50,PC-3,14 µM (inactive)
same,GI50,RPMI-8226,3.2 µM (inactive)
same,GI50,RXF 393,1.52 µM (inactive)
same,GI50,SF-268,13 µM (inactive)
same,GI50,SF-295,4.08 µM (inactive)
same,GI50,SF-539,15.6 µM (inactive)
same,GI50,SK-MEL-2,13.2 µM (inactive)
same,GI50,SK-MEL-5,3.2 µM (inactive)
same,GI50,SK-OV-3,21.8 µM (inactive)
same,GI50,SN12C,11 µM (inactive)
same,GI50,SNB-19,15 µM (inactive)
same,GI50,SR,4.72 µM (inactive)
same,GI50,SW-620,6.08 µM (inactive)
same,GI50,T47D,2.47 µM (inactive)
same,GI50,U-251,13.6 µM (inactive)
same,GI50,UACC-257,14.5 µM (inactive)
same,GI50,UACC-62,6.59 µM (inactive)
same,GI50,UO-31,9.46 µM (inactive)
CN(C)CCOC1(Cc2ccc(F)cc2)CCC(C(C)(C)C)CC1 (centres undefined),GI50,786-0,4.92 µM (inactive) and 4.2 µM (inactive)
same,GI50,A498,12.6 µM (inactive) and 14.7 µM (inactive)
same,GI50,A549,9.77 µM (inactive) and 11.9 µM (inactive)
same,GI50,ACHN,11 µM (inactive) and 12.9 µM (inactive)
same,GI50,CAKI-1,6.47 µM (inactive) and 7.69 µM (inactive)
same,GI50,CCRF-CEM,3.19 µM (inactive) and 2.64 µM (inactive)
same,GI50,COLO 205,2.03 µM (inactive) and 2.15 µM (inactive)
same,GI50,DU-145,9.2 µM (inactive) and 9.44 µM (inactive)
same,GI50,EKVX,11 µM (inactive) and 16 µM (inactive)
same,GI50,HCC 2998,2.96 µM (inactive) and 3.14 µM (inactive)
same,GI50,HCT-116,4.39 µM (inactive) and 4.75 µM (inactive)
same,GI50,HCT-15,8.13 µM and 6.81 µM
same,GI50,HL-60,2.84 µM (inactive) and 2.93 µM (inactive)
same,GI50,HOP-62,7 µM (inactive) and 6.82 µM (inactive)
same,GI50,HOP-92,12.2 µM (inactive)
same,GI50,HT-29,2.88 µM (inactive) and 2.7 µM (inactive)
same,GI50,Hs-578T,11.7 µM (inactive) and 14 µM (inactive)
same,GI50,IGROV-1,11.1 µM (inactive) and 11.5 µM (inactive)
same,GI50,K562,2.03 µM (inactive) and 2.19 µM (inactive)
same,GI50,KM12,5.62 µM (inactive) and 5.02 µM (inactive)
same,GI50,LOX IMVI,2.42 µM (inactive) and 3.2 µM (inactive)
same,GI50,M14,1.67 µM (inactive) and 2.05 µM (inactive)
same,GI50,MCF7,6.04 µM (inactive) and 5.24 µM (inactive)
same,GI50,MDA-MB-231,9.62 µM (inactive) and 10.5 µM (inactive)
same,GI50,MDA-MB-435,3.51 µM (inactive) and 4.54 µM (inactive)
same,GI50,MDA-N,3.2 µM (inactive) and 5.93 µM (inactive)
same,GI50,MOLT-4,3.13 µM (inactive) and 2.61 µM (inactive)
same,GI50,Malme-3M,4.38 µM (inactive) and 2.84 µM (inactive)
same,GI50,NCI-H226,9.38 µM (inactive) and 10.5 µM (inactive)
same,GI50,NCI-H23,13.3 µM (inactive) and 12 µM (inactive)
same,GI50,NCI-H460,3.27 µM (inactive) and 2.23 µM (inactive)
same,GI50,NCI-H522,6.08 µM (inactive) and 10.7 µM (inactive)
same,GI50,NCI/ADR-RES,12.9 µM (inactive) and 10.6 µM (inactive)
same,GI50,OVCAR-3,8.67 µM (inactive) and 13.4 µM (inactive)
same,GI50,OVCAR-5,7.59 µM (inactive) and 7.85 µM (inactive)
same,GI50,OVCAR-8,11.2 µM (inactive) and 12.8 µM (inactive)
same,GI50,PC-3,5.85 µM (inactive) and 5.07 µM (inactive)
same,GI50,RPMI-8226,2.3 µM (inactive) and 2.48 µM (inactive)
same,GI50,RXF 393,0.857 µM (active)
same,GI50,SF-268,12.4 µM (inactive) and 12.9 µM (inactive)
same,GI50,SF-295,5.75 µM (inactive) and 6.38 µM (inactive)
same,GI50,SK-MEL-28,6.05 µM (inactive) and 4.17 µM (inactive)
same,GI50,SK-MEL-5,1.93 µM (inactive) and 1.74 µM (inactive)
same,GI50,SK-OV-3,14 µM (inactive) and 15.2 µM (inactive)
same,GI50,SN12C,11.3 µM (inactive) and 12 µM (inactive)
same,GI50,SNB-19,7.31 µM (inactive) and 11.9 µM (inactive)
same,GI50,SR,2.63 µM (inactive) and 2.29 µM (inactive)
same,GI50,SW-620,4.37 µM (inactive) and 7.36 µM (inactive)
same,GI50,T47D,4.34 µM (inactive) and 5.09 µM (inactive)
same,GI50,TK-10,6.95 µM (inactive) and 12 µM (inactive)
same,GI50,U-251,5.28 µM (inactive) and 6.25 µM (inactive)
same,GI50,UACC-257,5.58 µM (inactive) and 4.09 µM (inactive)
same,GI50,UACC-62,4.36 µM (inactive) and 6.52 µM (inactive)
same,GI50,UO-31,6.12 µM (inactive) and 4.81 µM (inactive)
